{
  "source": "patent US7279172B2",
  "about": "“Treatment of autoimmune conditions with copolymer 1 and related copolymers” (priority 1998, dated 2007)",
  "key": {"HLA-DR2 [1]": {"biological_target": "T1, HLA-DR2 (Homo sapiens, UniProt P01903+P01911)", "experiment": "Competitive inhibition of biotinylated Copolymer 1 binding to HLA-DR2", "conditions": "vs 1.5 μM biotinylated Copolymer 1, pH 5.0, 40 hr 37° C."}, "HLA-DR1 [2]": {"biological_target": "T2, HLA-DR1 (Homo sapiens, UniProt P01903+P01911, A100R/D57E/F55L/F60I/F76Y/I96L/L162R/M171V/P40L/Q125E/R42F/V115G/Y59C)", "experiment": "Binding of biotinylated polypeptides to purified HLA-DR1"}, "HLA-DR4 [3]": {"biological_target": "T3, HLA-DR4 (Homo sapiens, UniProt P01903+P01911, A100K/A169T/F76Y/I96L/K127E/L162R/M171V/N62H/P40V/Q125Y/R42H/S133A/S149N/S66Y/V115G/V209L/W38E)", "experiment": "Competitive inhibition of biotinylated Copolymer 1 binding to HLA-DR4"}, "[4]": {"tested_on": "experimental allergic encephalomyelitis (EAE)", "experiment": "EAE suppression by injection with incomplete adjuvant", "format": "in vivo, (SJL/J×BALB/c)FI mice"}, "[5]": {"tested_on": "Rat Basophilic Leukemia cells (RBL-2Ho)", "experiment": "In vitro Rat Basophilic Leukemia cell degranulation test ([3H]-serotonin release)", "format": "cell-based", "conditions": "100 μg", "from_the_text": "Histamine (or serotonin) release from basophile is an in vitro model for immediate hypersensitivity. The Rat Basophilic Leukemia cell line, RBL-2Ho, is uniform and easy to maintain in culture but is a highly sensitive and reproducible system for testing for degranulation. E. L. Basumian, et al., 11 EUR. J. IMMUNOL. 317 (1981). The physiological stimulus for histamine release involves binding of the antigen to membrane-bound IgE molecules, which triggers an intricate biochemical cascade. Degranulation is induced by non-IgE-mediated stimuli, including various peptides and synthetic polymers, e.g. polylysine. R. P. Siraganian, TRENDS IN PHARM[…] 432 (October 1983). The RBL degranulation test is, therefore, used to screen out those batches of COP-1 which evoke substantial degranulation and thus might elicit undesirable local and/or systemic side effects.\nRat Basophilic Leukemia cells (RBL-2Ho), are loaded with [H^3]-serotonin, followed by incubation with 100 μg of the COP-1 to be tested. Batches of COP-1 which induce non-specific degranulation, release [H^3]-serotonin into the medium. The radioactivity in the medium is counted by a scintillation counter and the total radiolabeled serotonin incorporated into the cells is determined in the pelleted cells. Percent degranulation is calculated as the percentage of serotonin released out of the total incorporated."}, "[6]": {"tested_on": "T cells specific for the MBP 84-102 antigen", "experiment": "Inhibition of MBP-induced T cell proliferation", "format": "cell-based, mouse, human"}, "mouse spleen macrophages": {"tested_on": "mouse spleen macrophages", "experiment": "Binding of biotinylated polypeptides to living antigen presenting cells (FACS), mouse", "conditions": "50 μg biotinylated polypeptide, 37° C. for 20 hr"}, "HLA-DR4 [7]": {"biological_target": "T3, HLA-DR4", "experiment": "Binding of biotinylated polypeptides to purified HLA-DR4"}, "HLA-DR1 [8]": {"biological_target": "T2, HLA-DR1", "experiment": "Competitive inhibition of biotinylated Copolymer 1 binding to HLA-DR1"}, "[9]": {"tested_on": "human EBV transformed B-cell line", "experiment": "Binding of biotinylated polypeptides to living antigen presenting cells (FACS), human", "conditions": "50 μg biotinylated polypeptide, 37° C. for 20 hr; DR7,w11 haplotype"}, "WCB AB line": {"tested_on": "WCB AB line", "experiment": "IL-2 secretion from WCB AB line", "conditions": "for % Inhibition of IL-2 secretion: 2μM p259"}, "mice": {"tested_on": "mice", "experiment": "Toxicity test in mice (i.v. injection, 48 hour observation)", "format": "in vivo", "description": "Three batches of copolymer-1 having an average molecular weight of 7.3 and 8.4 KDa (less than 2.5% copolymer-1 species over 40KDa) and 22KDa (more than 5% copolymer-1 species over 40KDa) were subjected to the toxicity test described below. Five mice were used in each experimental group.\nCopolymer-1 is dissolved in distilled water to yield a solution of 2 mg/ml of the active ingredient. Each mouse is injected with 0.5 ml of the test solution into the lateral tail vein. […] Observations were recorded 10 minutes, 24 hours and 48 hours post-injection. If, at the end of 48 hours, all the animals were alive and no adverse signs had been observed, then the batch is designated “non-toxic”. If, however, one or more of the mice had died or had shown adverse signs, then the batch is designated “toxic”."}, "[10]": {"tested_on": "experimental allergic encephalomyelitis (EAE)", "experiment": "EAE suppression by oral administration", "conditions": "Lewis rats fed 5 mg/kg; mean maximal score for the entire group, 0-5 scale"}, "HLA-DR2 [11]": {"biological_target": "T1, HLA-DR2", "experiment": "Binding of biotinylated polypeptides to purified HLA-DR2"}, "[12]": {"conditions": "vs 1.5 μM biotinylated Copolymer 1, pH 5.0, 40 hr 37° C."}, "[13]": {"conditions": "mice, 10 mg/mouse subcutaneously in ICFA, EAE induced 3 weeks later"}},
  "note": "Entries after “also recorded” stand apart in the source; their conditions may differ.",
  "data": [
    {"substance": "Copolymer 1 [reference compound]", "values": [
      {"measurement": "IC50", "setting": "HLA-DR2 [1]", "value": 10.1, "unit": "µM"},
      {"measurement": "binding to HLA-DR1, comparison / order of binding capacity (in words)", "setting": "HLA-DR1 [2]; detergent-soluble HLA-DR1", "value": "better than that of GAL, TGA or GTL; also recorded: Copolymer 1>TAL>GTL>TGA>>GAL"},
      {"measurement": "Kd", "setting": "HLA-DR1 [2]; read-out: Kd DR1, detergent-soluble HLA-DR1, pH 5.0, 40 hr 37° C., from slope of double reciprocal plot", "value": 0.074, "unit": "µM"},
      {"measurement": "inhibition of binding of biotinylated Copolymer 1 to HLA-DR4 (in words)", "setting": "HLA-DR4 [3]; unlabeled inhibitor", "value": "efficiently inhibited"},
      {"measurement": "IC50", "setting": "HLA-DR4 [3]; [12]", "value": 10.8, "unit": "µM"},
      {"measurement": "EAE suppression (in words)", "setting": "[4]; injection in ICFA prior to induction of EAE", "value": "greatest EAE suppression"},
      {"measurement": "Incidence", "setting": "[4]; [13]", "value": "2/11"},
      {"measurement": "Suppression % Incidence", "setting": "[4]; [13]", "value": 82.0, "unit": "%"},
      {"measurement": "Suppression % MMS", "setting": "[4]; [13]", "value": 89.0, "unit": "%"},
      {"measurement": "MMS (Mean Maximal Score)", "setting": "[4]; mice, 10 mg/mouse subcutaneously in ICFA, EAE induced 3 weeks later, 0-5 scale", "value": 0.45},
      {"measurement": "% Serotonin Release", "setting": "[5]; Copolymer 1 batch Average M.W. 6,250, <2.5% species over 40 KDa", "value": 12.4, "unit": "%"},
      {"measurement": "% Serotonin Release", "setting": "[5]; Copolymer 1 batch Average M.W. 7,300, <2.5% species over 40 KDa", "value": 21.0, "unit": "%"},
      {"measurement": "% Serotonin Release", "setting": "[5]; Copolymer 1 batch Average M.W. 13,000, >5% species over 40 KDa", "value": 66.9, "unit": "%"},
      {"measurement": "% Serotonin Release", "setting": "[5]; Copolymer 1 batch Average M.W. 14,500, >5% species over 40 KDa", "value": 67.8, "unit": "%"},
      {"measurement": "inhibition of proliferation of T cells exposed to MBP 84-102 antigen (in words)", "setting": "[6]; polypeptide added with stimulating MBP antigen", "value": "significantly inhibited the proliferation"},
      {"measurement": "stimulation of proliferation of T cells specific for the 84-102 peptide of MBP (in words)", "setting": "[6]; polypeptide as antigen", "value": "did not stimulate proliferation"},
      {"measurement": "% Binding", "setting": "mouse spleen macrophages", "value": 85, "unit": "%"},
      {"measurement": "MFI (Mean Fluorescence Intensity)", "setting": "mouse spleen macrophages", "value": 493},
      {"measurement": "binding to HLA-DR4, comparison / order of binding capacity (in words)", "setting": "HLA-DR4 [7]; detergent-soluble HLA-DR4", "value": "better than that of GAL, TGA or GTL; also recorded: TAL>Copolymer 1>>TGA>GTL>GAL"},
      {"measurement": "Kd", "setting": "HLA-DR4 [7]; read-out: Kd DR4, detergent-soluble HLA-DR4, pH 5.0, 40 hr 37° C., from slope of double reciprocal plot", "value": 0.015, "unit": "µM"},
      {"measurement": "inhibition of binding of biotinylated Copolymer 1 to HLA-DR1 (in words)", "setting": "HLA-DR1 [8]; unlabeled inhibitor", "value": "efficiently inhibited"},
      {"measurement": "IC50", "setting": "HLA-DR1 [8]; [12]", "value": 8.8, "unit": "µM"},
      {"measurement": "% Binding", "setting": "[9]", "value": 96, "unit": "%"},
      {"measurement": "MFI (Mean Fluorescence Intensity)", "setting": "[9]", "value": 727},
      {"measurement": "% Inhibition of IL-2 secretion", "setting": "WCB AB line; Cop1 20 μM", "value": 73, "unit": "%"},
      {"measurement": "% Inhibition of IL-2 secretion", "setting": "WCB AB line; Cop1 60 μM", "value": 88, "unit": "%"},
      {"measurement": "% Inhibition of IL-2 secretion", "setting": "WCB AB line; Cop1 100 μM", "value": "about 91%"},
      {"measurement": "% Inhibition of IL-2 secretion", "setting": "WCB AB line; Cop1 100 μM, listed as Cop1", "value": 91, "unit": "%"},
      {"measurement": "inhibition of p259-induced T cell secretion of IL-2 (in words)", "setting": "WCB AB line; Copolymer 1 incubated with the p259 peptide", "value": "inhibited in a dose-related fashion"},
      {"measurement": "batch designation toxic / non-toxic", "setting": "mice; Copolymer 1 batch of 7.3 KDa average molecular weight", "value": "non-toxic"},
      {"measurement": "batch designation toxic / non-toxic", "setting": "mice; Copolymer 1 batch of 8.4 KDa average molecular weight", "value": "non-toxic"},
      {"measurement": "batch designation toxic / non-toxic", "setting": "mice; Copolymer 1 batch of 22 kDa average molecular weight", "value": "toxic"},
      {"measurement": "mice died after 48 hours", "setting": "mice; Copolymer 1 batch of 22 kDa average molecular weight, 0.5 ml of 2 mg/ml into lateral tail vein, five mice", "value": "Three of five"},
      {"measurement": "MMS ± SD", "setting": "[10]", "value": "0.78 ± 0.45"},
      {"measurement": "binding to HLA-DR2, comparison / order of binding capacity (in words)", "setting": "HLA-DR2 [11]; detergent-soluble HLA-DR2", "value": "bound better than the other polypeptides; also recorded: Copolymer 1>GTL>TAL>GAL>TGA"},
      {"measurement": "Kd", "setting": "HLA-DR2 [11]; read-out: Kd DR2, detergent-soluble HLA-DR2, pH 5.0, 40 hr 37° C., from slope of double reciprocal plot", "value": 0.082, "unit": "µM"}
    ]}
  ]
}
